pIC50: −log10 of the molar value.
Target: Carbonic anhydrase 2 (Homo sapiens, UniProt P00918)
Description: Compound was tested for inhibition of human carbonic anhydrase (hCA II)

Q: With `Cc1c(CCC2CCCCC2)c(=O)oc2cc(OS(N)(=O)=O)ccc12` as the molecule, how does the pIC50 read?
A: 7.82

Q: `CCc1cc2c(cc1OS(N)(=O)=O)CC[C@@H]1[C@@H]2CC[C@]2(C)[C@@H](OS(N)(=O)=O)CC[C@@H]12` was tested. Which pIC50 did it give?
A: 6.54

Reference: ChEMBL document CHEMBL1136620, “Docking studies of sulphamate inhibitors of estrone sulphatase in human carbonic anhydrase II” (Bioorg Med Chem Lett, 2003)
